From patent US12319672B2, “Alpha-D-galactopyranoside derivatives” (Idorsia Pharmaceuticals Ltd, priority 2019, dated 2025) come the findings set out here.

pIC50: −log10 of the molar value.

The target of test [1] is human Gal-3 (hGal-3) (Homo sapiens (Human), UniProt P17931). Description: Competitive binding assay: binding of biotinylated hGal-3 to microplate-adsorbed asialofetuin (ASF). To be noted: Activity on hGal-3; mean values of several measurements. A digest of the protocol: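 Compounds in DMSO dilution series competed with 300-1000 ng/mL biotinylated hGal-3 for asialofetuin adsorbed on the plate (3 h, 4° C). Streptavidin-peroxidase at 80 ng/mL (1 h, 4° C) with ABTS gave a spectrophotometric read-out, and IC50 was reported as the mean of repeat runs.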

Test [2] deals with human Gal-1 (hGal-1). Description: Competitive binding assay: binding of biotinylated hGal-1 to microplate-adsorbed asialofetuin (ASF). As to conditions: Activities on hGal-1; mean values of several measurements. A digest of the protocol:
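For hGal-1, a variant with all six cysteines replaced by serines is preferred. Either galectin, biotinylated at 300-1000 ng/mL, competes with compound for microplate-bound ASF over 3 h at 4° C; peroxidase/ABTS detection gives IC50, averaged.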

Chain of human Gal-3 (hGal-3) (P17931 whole entry): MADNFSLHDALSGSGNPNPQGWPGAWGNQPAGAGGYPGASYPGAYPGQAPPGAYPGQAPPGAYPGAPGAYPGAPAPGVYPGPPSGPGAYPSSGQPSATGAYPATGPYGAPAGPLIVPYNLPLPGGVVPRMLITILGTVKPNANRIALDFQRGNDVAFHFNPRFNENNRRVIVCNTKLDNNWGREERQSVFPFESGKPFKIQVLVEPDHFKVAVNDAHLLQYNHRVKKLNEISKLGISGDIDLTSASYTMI
Chain of human Gal-1 (hGal-1) (P09382 2-135 limits assumed): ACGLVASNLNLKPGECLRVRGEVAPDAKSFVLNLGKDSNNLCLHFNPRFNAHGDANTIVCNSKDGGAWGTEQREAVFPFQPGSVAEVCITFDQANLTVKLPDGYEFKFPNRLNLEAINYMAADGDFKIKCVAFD

On to `CO[C@@H]1[C@@H](n2cc(-c3cc(F)c(F)c(F)c3)nn2)[C@@H](O)[C@@H](CO)O[C@@H]1Cc1cn(C2CCN(C(C)=O)CC2)nn1` [Example 4.06, 1-(4-(4-(((2R,3R,4S,5R,6R)-5-hydroxy-6-(hydroxymethyl)-3-methoxy-4-(4-(3,4,5-trifluorophenyl)-1H-1,2,3-triazol-1-yl)tetrahydro-2H-pyran-2-yl)methyl)-1H-1,2,3-triazol-1-yl)piperidin-1-yl)ethan-1-one], for which the pIC50 in test [1] is 7.28; in test [2], 6.80.

With `CO[C@@H]1[C@@H](n2cc(-c3cc(F)c(F)c(F)c3)nn2)[C@@H](O)[C@@H](CO)O[C@@H]1Cc1cn(C2CCN(S(C)(=O)=O)CC2)nn1` [Example 4.07, (2R,3R,4S,5R,6R)-2-(hydroxymethyl)-5-methoxy-6-((1-(1-(methylsulfonyl)piperidin-4-yl)-1H-1,2,3-triazol-4-yl)methyl)-4-(4-(3,4,5-trifluorophenyl)-1H-1,2,3-triazol-1-yl)tetrahydro-2H-pyran-3-ol], the negative logarithm of the IC50 (pIC50) is 7.92 in test [1] and 7.00 in test [2].

As for `CO[C@@H]1[C@@H](n2cc(-c3cc(F)c(F)c(F)c3)nn2)[C@@H](O)[C@@H](CO)O[C@@H]1Cc1cn(C2CCN(C(=O)NC(C)(C)C)CC2)nn1` [Example 4.08, N-(tert-butyl)-4-(4-(((2R,3R,4S,5R,6R)-5-hydroxy-6-(hydroxymethyl)-3-methoxy-4-(4-(3,4,5-trifluorophenyl)-1H-1,2,3-triazol-1-yl)tetrahydro-2H-pyran-2-yl)methyl)-1H-1,2,3-triazol-1-yl)piperidine-1-carboxamide], the pIC50 in test [1] was 8.00; in test [2] it was 7.17.

Regarding `CCCS(=O)(=O)N1CCC(n2cc(C[C@H]3O[C@H](CO)[C@H](O)[C@H](n4cc(-c5cc(F)c(F)c(F)c5)nn4)[C@H]3OC)nn2)CC1` [Example 4.09, (2R,3R,4S,5R,6R)-2-(hydroxymethyl)-5-methoxy-6-((1-(1-(propylsulfonyl)piperidin-4-yl)-1H-1,2,3-triazol-4-yl)methyl)-4-(4-(3,4,5-trifluorophenyl)-1H-1,2,3-triazol-1-yl)tetrahydro-2H-pyran-3-ol], the negative logarithm of the IC50 (pIC50) is 7.89 in test [1] and 7.00 in test [2].

Consider `CO[C@@H]1[C@@H](n2cc(-c3cc(F)c(F)c(F)c3)nn2)[C@@H](O)[C@@H](CO)O[C@@H]1Cc1cn(C2CCN(S(=O)(=O)C(C)C)CC2)nn1` [Example 4.10, (2R,3R,4S,5R,6R)-2-(hydroxymethyl)-6-((1-(1-(isopropylsulfonyl)piperidin-4-yl)-1H-1,2,3-triazol-4-yl)methyl)-5-methoxy-4-(4-(3,4,5-trifluorophenyl)-1H-1,2,3-triazol-1-yl)tetrahydro-2H-pyran-3-ol], for which the results for the negative-log IC50 (pIC50) in test [1] and in test [2] were 7.60 and 6.57, respectively.

As to `CO[C@@H]1[C@@H](n2cc(-c3cc(F)c(F)c(F)c3)nn2)[C@@H](O)[C@@H](CO)O[C@H]1Cc1cn(C2CCN(C(=O)OC(C)(C)C)CC2)nn1` [Example 4.11, tert-butyl 4-(4-(((2S,3R,4S,5R,6R)-5-hydroxy-6-(hydroxymethyl)-3-methoxy-4-(4-(3,4,5-trifluorophenyl)-1H-1,2,3-triazol-1-yl)tetrahydro-2H-pyran-2-yl)methyl)-1H-1,2,3-triazol-1-yl)piperidine-1-carboxylate], the pIC50 in test [1] was 5.92; in test [2], 5.52.

Consider `CO[C@@H]1[C@@H](n2cc(-c3cc(F)c(F)c(F)c3)nn2)[C@@H](O)[C@@H](CO)O[C@H]1Cc1cn(C2CCN(C(C)=O)CC2)nn1` [Example 4.12, 1-(4-(4-(((2S,3R,4S,5R,6R)-5-hydroxy-6-(hydroxymethyl)-3-methoxy-4-(4-(3,4,5-trifluorophenyl)-1H-1,2,3-triazol-1-yl)tetrahydro-2H-pyran-2-yl)methyl)-1H-1,2,3-triazol-1-yl)piperidin-1-yl)ethan-1-one], for which the pIC50 in test [1] is 6.15; in test [2] it was 5.52.

On to `CO[C@@H]1[C@@H](n2cc(-c3cc(F)c(F)c(F)c3)nn2)[C@@H](O)[C@@H](CO)O[C@@H]1Cc1cn(C2CCN(C(=O)OCc3ccccc3)CC2)nn1` [Example 4.13, benzyl 4-(4-(((2R,3R,4S,5R,6R)-5-hydroxy-6-(hydroxymethyl)-3-methoxy-4-(4-(3,4,5-trifluorophenyl)-1H-1,2,3-triazol-1-yl)tetrahydro-2H-pyran-2-yl)methyl)-1H-1,2,3-triazol-1-yl)piperidine-1-carboxylate], for which the pIC50 in test [1] was 7.77; in test [2] it was 6.47.

As to `CO[C@@H]1[C@@H](n2cc(-c3cc(F)c(F)c(F)c3)nn2)[C@@H](O)[C@@H](CO)O[C@@H]1Cc1cn(C2CCSCC2)nn1` [Example 4.14, (2R,3R,4S,5R,6R)-2-(hydroxymethyl)-5-methoxy-6-((1-(tetrahydro-2H-thiopyran-4-yl)-1H-1,2,3-triazol-4-yl)methyl)-4-(4-(3,4,5-trifluorophenyl)-1H-1,2,3-triazol-1-yl)tetrahydro-2H-pyran-3-ol], the negative logarithm of the IC50 (pIC50) in test [1] was 7.44; in test [2] it was 5.41.

As to `CO[C@@H]1[C@@H](n2cc(-c3cc(F)c(F)c(F)c3)nn2)[C@@H](O)[C@@H](CO)O[C@@H]1Cc1cn(C2CC[S+]([O-])CC2)nn1` (stereo partly drawn) [Example 4.15, 4-(4-(((2R,3R,4S,5R,6R)-5-hydroxy-6-(hydroxymethyl)-3-methoxy-4-(4-(3,4,5-trifluorophenyl)-1H-1,2,3-triazol-1-yl)tetrahydro-2H-pyran-2-yl)methyl)-1H-1,2,3-triazol-1-yl)tetrahydro-2H-thiopyran 1-oxide], the pIC50 was 6.68 in test [1] and 5.31 in test [2].

Consider `CO[C@@H]1[C@@H](n2cc(-c3cc(F)c(F)c(F)c3)nn2)[C@@H](O)[C@@H](CO)O[C@@H]1Cc1cn(C2CCS(=O)(=O)CC2)nn1` [Example 4.16, 4-(4-(((2R,3R,4S,5R,6R)-5-hydroxy-6-(hydroxymethyl)-3-methoxy-4-(4-(3,4,5-trifluorophenyl)-1H-1,2,3-triazol-1-yl)tetrahydro-2H-pyran-2-yl)methyl)-1H-1,2,3-triazol-1-yl)tetrahydro-2H-thiopyran 1,1-dioxide], for which the pIC50 was 7.46 in test [1] and 6.17 in test [2].

Consider `CO[C@@H]1[C@@H](n2cc(-c3cc(F)c(F)c(F)c3)nn2)[C@@H](O)[C@@H](CO)O[C@@H]1Cc1cn(C2CCS(=N)(=O)CC2)nn1` (stereo partly drawn) [Example 4.17, 4-(4-(((2R,3R,4S,5R,6R)-5-hydroxy-6-(hydroxymethyl)-3-methoxy-4-(4-(3,4,5-trifluorophenyl)-1H-1,2,3-triazol-1-yl)tetrahydro-2H-pyran-2-yl)methyl)-1H-1,2,3-triazol-1-yl)-1-iminohexahydro-1l6-thiopyran 1-oxide], for which the negative-log IC50 (pIC50) in test [1] is 7.60; in test [2] it was 6.77.

For the molecule `CN=S1(=O)CCC(n2cc(C[C@H]3O[C@H](CO)[C@H](O)[C@H](n4cc(-c5cc(F)c(F)c(F)c5)nn4)[C@H]3OC)nn2)CC1` (stereo partly drawn) [Example 4.18, 4-(4-(((2R,3R,4S,5R,6R)-5-hydroxy-6-(hydroxymethyl)-3-methoxy-4-(4-(3,4,5-trifluorophenyl)-1H-1,2,3-triazol-1-yl)tetrahydro-2H-pyran-2-yl)methyl)-1H-1,2,3-triazol-1-yl)-1-(methylimino)hexahydro-1l6-thiopyran 1-oxide], the pIC50 was 7.24 in test [1] and 6.62 in test [2].

Consider `CO[C@@H]1[C@@H](n2cc(-c3cc(F)c(F)c(F)c3)nn2)[C@@H](O)[C@@H](CO)O[C@@H]1Cc1cn(C2CCN([S+]([O-])C(C)(C)C)CC2)nn1` (stereo partly drawn) [Example 4.19, (2R,3R,4S,5R,6R)-6-((1-(1-(RS-tert-butylsulfinyl)piperidin-4-yl)-1H-1,2,3-triazol-4-yl)methyl)-2-(hydroxymethyl)-5-methoxy-4-(4-(3,4,5-trifluorophenyl)-1H-1,2,3-triazol-1-yl)tetrahydro-2H-pyran-3-ol], for which the pIC50 is 7.47 in test [1] and 6.00 in test [2].

Regarding `CO[C@@H]1[C@@H](n2cc(-c3cc(F)c(F)c(F)c3)nn2)[C@@H](O)[C@@H](CO)O[C@@H]1Cn1cc(C2CCN(C(=O)OCc3ccccc3)CC2)nn1` [Example 4.20, benzyl 4-(1-(((2R,3R,4S,5R,6R)-5-hydroxy-6-(hydroxymethyl)-3-methoxy-4-(4-(3,4,5-trifluorophenyl)-1H-1,2,3-triazol-1-yl)tetrahydro-2H-pyran-2-yl)methyl)-1H-1,2,3-triazol-4-yl)piperidine-1-carboxylate], the values for the pIC50 in test [1] and in test [2] were 7.68 and 6.28, respectively.

Take `CO[C@@H]1[C@@H](n2cc(-c3cc(F)c(F)c(F)c3)nn2)[C@@H](O)[C@@H](CO)O[C@@H]1Cc1cn(C2CCN(S(=N)(=O)C(C)(C)C)CC2)nn1` (stereo partly drawn) [Example 4.21, (2R,3R,4S,5R,6R)-2-(hydroxymethyl)-5-methoxy-6-((1-(1-(2-methylpropan-2-ylsulfonimidoyl)piperidin-4-yl)-1H-1,2,3-triazol-4-yl)methyl)-4-(4-(3,4,5-trifluorophenyl)-1H-1,2,3-triazol-1-yl)tetrahydro-2H-pyran-3-ol]: the pIC50 in test [1] was 7.72; in test [2], 7.07.

As to `CO[C@@H]1[C@@H](n2cc(-c3cc(F)c(F)c(F)c3)nn2)[C@@H](O)[C@@H](CO)O[C@@H]1Cn1cc(C2CCN(S(=O)(=O)C(C)C)CC2)nn1` [Example 4.22, (2R,3R,4S,5R,6R)-2-(hydroxymethyl)-6-((4-(1-(isopropylsulfonyl)piperidin-4-yl)-1H-1,2,3-triazol-1-yl)methyl)-5-methoxy-4-(4-(3,4,5-trifluorophenyl)-1H-1,2,3-triazol-1-yl)tetrahydro-2H-pyran-3-ol], the pIC50 in test [1] was 7.35; in test [2] it was 6.11.
